BindingDB's records for PubMed 7473144 (Gliatech, 1995)

Biological target: Hrh3 protein (Rattus norvegicus, UniProt Q5PPG3)
Sequence (Q5PPG3 whole entry): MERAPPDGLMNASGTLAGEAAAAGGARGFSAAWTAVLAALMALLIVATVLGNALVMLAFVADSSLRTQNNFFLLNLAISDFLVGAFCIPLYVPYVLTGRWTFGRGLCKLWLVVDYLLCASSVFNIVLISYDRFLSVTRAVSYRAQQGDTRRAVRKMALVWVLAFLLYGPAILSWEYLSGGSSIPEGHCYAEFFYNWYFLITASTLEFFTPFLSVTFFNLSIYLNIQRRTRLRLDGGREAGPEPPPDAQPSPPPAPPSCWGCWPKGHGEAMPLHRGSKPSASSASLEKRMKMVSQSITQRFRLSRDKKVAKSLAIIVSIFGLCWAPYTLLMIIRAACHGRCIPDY

S=C(NC1CCCCC1)N1CCC(c2cnc[nH]2)CC1
Ki: 1.8 nM
